In US5130425A, “Spiro-lactams and analogs thereof useful as aldose reductase inhibitors” (American Home Products Corporation, priority 1991, dated 1992):

How the values were obtained:
aldose reductase = molecular target: T1, aldose reductase (Bos taurus, UniProt P16116); assay: In vitro aldose reductase inhibition (modified procedure of Hayman and Kinoshita, enzyme from bovine lens); assay type: biochemical
T1 construct: preparation of the enzyme from bovine lens; from tissue; host or cells: bovine lens
Method: Only two minor reagent changes were made: (a) the rinsing mixture was an aqueous 5% (w/v) trichloroacetic acid solution and (b) the stock solution was prepared by dissolving 25 mg of dulcitol in 100 mL of an aqueous trichloroacetic acid solution. [N.B.: For each experiment the average value found in the tissue from rats fed the glucose diet was subtracted from the individual values found in the corresponding tissue in galactose-fed rats to obtain the amount of polyol accumulated.] […] In the present case the procedure of Hayman and Kinoshita was modified in that the final chromatography step was omitted in the preparation of the enzyme from bovine lens.

[1] = tested on: galactitol (dulcitol) accumulation in tissues of galactosemic rats; assay: Galactosemic rat test: lowering of galactitol (dulcitol) accumulation in lens, sciatic nerve and diaphragm; assay type: in vivo, rat (Sprague-Dawley, male); parameters: key to % Lowering Galactitol Accumulation In vivo, L: NS: not significant; conditions: 4 days, vs untreated galactosemic rats; for % Lowering Galactitol Accumulation In vivo, D: diaphragm; for % Lowering Galactitol Accumulation In vivo, L: lens
Description: The aldose reductase inhibiting property of the compounds of this invention and the utilization of the compounds in preventing, diminishing and alleviating diabetic complications are demonstrable in experiments using galactosemic rats, see Dvornik et al., Science, 182, 1146 (1973). Such experiments are exemplified hereinbelow after the listing of the following general comments pertaining to these experiments:
(a) Four or more groups of six male rats, 50-70 g, Sprague-Dawley strain, were used. The first group, the control group, was fed a mixture of laboratory chow (rodent Laboratory Chow, Purina) and glucose at 20% (w/w %) concentration. An untreated galactosemic group was fed a similar diet in which galactose was substituted for glucose. The third group was fed a diet prepared by mixing a given amount of the test compound with the galactose containing diet. The concentration of galactose in the diet of the treated groups was the same as that for the untreated galactosemic group.
(b) After four days, the animals were killed by euthanization. Both the lens and sciatic nerve were removed, weighed and stored frozen for polyol determination.
(c) The polyol determination was performed by a modification of the procedure of M. Kraml and L. Cosyns, Clin. Biochem., 2,373 (1969). Only two minor reagent changes were made: (a) the rinsing mixture was an aqueous 5% (w/v) trichloroacetic acid solution and (b) the stock solution was prepared by dissolving 25 mg of dulcitol in 100 mL of an aqueous trichloroacetic acid solution. [N.B.: For each experiment the average value found in the tissue from rats fed the glucose diet was subtracted from the individual values found in the corresponding tissue in galactose-fed rats to obtain the amount of polyol accumulated.] The aldose reductase inhibiting effects of the compounds of formula (I) were also tested by employing an in vitro testing procedure similar to that described by S. Hayman and J. H. Kinoshita, J. Biol. Chem., 240, 877 (1965). In the present case the procedure of Hayman and Kinoshita was modified in that the final chromatography step was omitted in the preparation of the enzyme from bovine lens.
The figures under L, N, and D represent the percentage decrease of dulcitol accumulation in the tissues of the lens, sciatic nerve, and diaphragm, respectively, for treated rats as compared to untreated rats.

[2] = column headed 10^5 (concentration unit not given)
[3] = column headed 10^-6 (concentration unit not given)
[4] = column headed 10^-7 (concentration unit not given)

Structure (SMILES)	% Inhibition In Vitro (aldose reductase; [2]) [%]	% Inhibition In Vitro (aldose reductase; [3]) [%]	% Inhibition In Vitro (aldose reductase; [4]) [%]	% Lowering Galactitol Accumulation In vivo, D ([1]; 11 mg/kg/day in diet) [%]	% Lowering Galactitol Accumulation In vivo, D ([1]; 49 mg/kg/day in diet) [%]	% Lowering Galactitol Accumulation In vivo, L ([1]; 11 mg/kg/day in diet)	% Lowering Galactitol Accumulation In vivo, L ([1]; 49 mg/kg/day in diet) [%]	% Lowering Galactitol Accumulation In vivo, D ([1]; 28 mg/kg/day in diet) [%]	% Lowering Galactitol Accumulation In vivo, L ([1]; 28 mg/kg/day in diet) [%]
CN1C(=O)c2ccc(Cl)cc2C2(CC(=O)N2)C1=O (stereo not drawn) [Cl CH3, 6'-chloro-2'-methylspiro[azetidine-2,4'(1'H)-isoquinoline]-1',3',4(2'H)-trione]	84	75	22	70	82	NS	66		
CN1C(=O)c2ccc(Br)cc2C2(CC(=O)N2)C1=O (stereo not drawn) [Br CH3, 6'-bromo-2'-methylspiro[azetidine-2,4'(1'H)-isoquinoline]-1',3',4(2'H)-trione]	96	77	16					86	36
